Reference: patent publication US20200262813A1, “1,5,7-TRISUBSTITUTED ISOQUINOLINE DERIVATIVES, PREPARATION THEREOF, AND USE THEREOF IN MEDICINES” (SHANGHAI HAIYAN PHARMACEUTICAL TECHNOLOGY CO., LTD., priority 2016, published 2020)

Molecular target: Recombinant PRC2 (EZH2-Y641F) (Homo sapiens, UniProt Q15910, Y641F)
Experiment: In vitro methyltransferase activity test (LANCE Ultra);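 note: compounds tested as an 8-point threefold dilution series, fluorescence read after 1 h detection step at room temperature, IC50 derived from a four-parameter curve fit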
Details: EZH2 Y641F IC50, Recombinant PRC2 (EZH2-Y641F), LANCE Ultra detection, 3 hours reaction
Procedure: In Vitro Methyltransferase Activity Test
Recombinant PRC2 (EZH2-Y641F) was purchased from Active motif, S-adenosyl-methionine (SAM) and Poly-L-lysine (PLL) were purchased from Sigma-Aldrich, H3(1-50)K27mel polypeptide was purchased from Cisbio. LANCEUltra system (Perkinelmer) was used for detection. In the enzyme activity test, a compound to be tested was 1:3 diluted for 8 gradient points, added into a reaction plate, and then added 100 ng recombinant enzyme. And then a buffer [20 mM Tris pH8.5, 2 mM MgCl2, 0.01% Tween-20, 1 mM TCEP] containing 2.5 M SAM/250 nM H3(1-50)K27mel premixture was added to conduct an enzyme reaction at room tempreture. After reacted for 3 hours, a dection solution containing premixed PLL, detection antibody and Ulight was added, reacted for 1 h at RT, then fluorescence was read on Tecan infinite pro. IC50s were calculated by four-factor model fitting in a XLfit software.

Chain of Recombinant PRC2 (EZH2-Y641F) (Q15910 whole entry Y641F): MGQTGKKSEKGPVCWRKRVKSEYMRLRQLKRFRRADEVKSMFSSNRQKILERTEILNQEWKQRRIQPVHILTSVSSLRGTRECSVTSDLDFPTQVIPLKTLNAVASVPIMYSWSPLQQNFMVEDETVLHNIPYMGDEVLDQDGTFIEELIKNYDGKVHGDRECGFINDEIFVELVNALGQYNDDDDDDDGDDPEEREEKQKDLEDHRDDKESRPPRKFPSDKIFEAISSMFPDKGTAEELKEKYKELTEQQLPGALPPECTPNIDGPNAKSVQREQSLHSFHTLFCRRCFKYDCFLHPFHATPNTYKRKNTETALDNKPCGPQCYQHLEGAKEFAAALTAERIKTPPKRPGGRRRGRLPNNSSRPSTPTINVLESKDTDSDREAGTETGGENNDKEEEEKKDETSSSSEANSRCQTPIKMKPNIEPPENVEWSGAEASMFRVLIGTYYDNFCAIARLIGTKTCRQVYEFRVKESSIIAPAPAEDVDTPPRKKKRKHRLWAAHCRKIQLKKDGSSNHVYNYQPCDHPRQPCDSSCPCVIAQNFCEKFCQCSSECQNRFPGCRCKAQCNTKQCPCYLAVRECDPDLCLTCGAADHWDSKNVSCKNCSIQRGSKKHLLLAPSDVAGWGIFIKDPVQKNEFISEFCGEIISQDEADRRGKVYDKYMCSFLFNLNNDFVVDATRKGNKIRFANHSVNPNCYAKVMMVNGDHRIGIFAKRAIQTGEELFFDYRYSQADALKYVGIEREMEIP
Chain of Recombinant PRC2 (EZH2-Y641F) (O75530 whole entry partner): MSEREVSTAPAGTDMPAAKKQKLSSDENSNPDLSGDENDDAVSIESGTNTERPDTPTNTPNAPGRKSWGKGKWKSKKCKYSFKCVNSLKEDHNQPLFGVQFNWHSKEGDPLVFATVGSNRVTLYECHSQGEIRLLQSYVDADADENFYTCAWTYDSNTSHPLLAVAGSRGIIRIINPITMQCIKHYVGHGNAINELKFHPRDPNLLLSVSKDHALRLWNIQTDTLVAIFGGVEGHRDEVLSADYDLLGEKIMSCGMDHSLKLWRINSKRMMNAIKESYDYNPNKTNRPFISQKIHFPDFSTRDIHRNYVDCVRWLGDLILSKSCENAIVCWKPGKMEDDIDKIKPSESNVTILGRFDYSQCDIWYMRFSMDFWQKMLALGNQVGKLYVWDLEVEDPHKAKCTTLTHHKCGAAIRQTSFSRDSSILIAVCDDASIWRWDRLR
Chain of Recombinant PRC2 (EZH2-Y641F) (Q15022 whole entry partner): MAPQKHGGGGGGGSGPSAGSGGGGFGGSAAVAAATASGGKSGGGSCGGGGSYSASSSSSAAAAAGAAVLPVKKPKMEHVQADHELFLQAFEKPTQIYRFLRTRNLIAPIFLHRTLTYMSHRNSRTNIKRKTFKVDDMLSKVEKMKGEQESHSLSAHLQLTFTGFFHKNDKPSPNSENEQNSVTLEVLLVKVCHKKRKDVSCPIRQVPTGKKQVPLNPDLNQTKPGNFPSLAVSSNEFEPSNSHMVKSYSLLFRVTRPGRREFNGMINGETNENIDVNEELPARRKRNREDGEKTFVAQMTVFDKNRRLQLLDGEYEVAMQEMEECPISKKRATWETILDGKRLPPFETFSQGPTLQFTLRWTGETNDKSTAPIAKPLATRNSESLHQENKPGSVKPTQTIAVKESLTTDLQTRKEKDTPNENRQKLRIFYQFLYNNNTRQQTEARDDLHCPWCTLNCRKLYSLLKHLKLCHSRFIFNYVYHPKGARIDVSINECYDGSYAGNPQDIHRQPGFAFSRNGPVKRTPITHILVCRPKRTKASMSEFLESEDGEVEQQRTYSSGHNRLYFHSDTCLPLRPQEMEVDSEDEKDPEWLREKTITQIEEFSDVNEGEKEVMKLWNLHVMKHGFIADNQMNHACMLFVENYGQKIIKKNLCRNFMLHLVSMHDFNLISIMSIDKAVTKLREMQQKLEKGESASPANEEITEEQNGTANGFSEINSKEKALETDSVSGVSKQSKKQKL
Chain of Recombinant PRC2 (EZH2-Y641F) (Q09028 whole entry partner): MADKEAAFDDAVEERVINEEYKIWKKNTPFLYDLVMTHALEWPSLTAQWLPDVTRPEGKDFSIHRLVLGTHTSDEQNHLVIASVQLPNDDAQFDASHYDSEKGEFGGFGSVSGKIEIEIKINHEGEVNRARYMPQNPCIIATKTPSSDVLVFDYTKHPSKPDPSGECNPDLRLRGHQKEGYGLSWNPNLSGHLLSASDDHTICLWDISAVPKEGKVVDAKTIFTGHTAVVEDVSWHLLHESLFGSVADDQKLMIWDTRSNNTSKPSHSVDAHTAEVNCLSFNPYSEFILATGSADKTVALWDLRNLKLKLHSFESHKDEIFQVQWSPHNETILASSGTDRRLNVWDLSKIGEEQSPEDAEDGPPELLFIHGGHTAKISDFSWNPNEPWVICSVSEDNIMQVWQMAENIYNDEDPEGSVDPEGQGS
Chain of Recombinant PRC2 (EZH2-Y641F) (Q6ZN18 whole entry partner): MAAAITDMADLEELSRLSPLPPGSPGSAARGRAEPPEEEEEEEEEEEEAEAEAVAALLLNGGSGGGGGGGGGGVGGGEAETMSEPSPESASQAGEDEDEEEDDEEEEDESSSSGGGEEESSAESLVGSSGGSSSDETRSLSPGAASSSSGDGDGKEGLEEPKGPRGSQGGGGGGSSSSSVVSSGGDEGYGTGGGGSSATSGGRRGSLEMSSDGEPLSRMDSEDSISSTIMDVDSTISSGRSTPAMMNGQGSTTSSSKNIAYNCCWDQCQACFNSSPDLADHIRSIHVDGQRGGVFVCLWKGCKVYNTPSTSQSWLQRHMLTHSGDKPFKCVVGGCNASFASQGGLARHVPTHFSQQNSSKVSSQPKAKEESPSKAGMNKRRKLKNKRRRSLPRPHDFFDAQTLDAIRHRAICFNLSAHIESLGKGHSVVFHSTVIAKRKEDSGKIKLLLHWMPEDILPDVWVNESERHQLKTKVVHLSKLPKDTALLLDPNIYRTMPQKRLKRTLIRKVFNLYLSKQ

| IC50 | SMILES |
| --- | --- |
| 0.157 µM | CCN(c1cc(-c2ccc(CN3CCN(C)CC3)cc2)cc2c(NCc3c(C)cc(C)[nH]c3=O)nccc12)C1CCOCC1 [Compound Z-29] |
| 0.298 µM | CCN(c1cc(-c2ccc(CN(C)C)cc2)cc2c(NCc3c(C)cc(C)[nH]c3=O)nccc12)C1CCOCC1 [Compound Z-30] |
| 0.328 µM | CCN(c1cc(-c2ccc(CN3CCC[C@H](O)C3)cc2)cc2c(NCc3c(C)cc(C)[nH]c3=O)nccc12)C1CCOCC1 [Compound Z-31] |
| 0.488 µM | CCN(c1cc(-c2ccc(NC3CCOCC3)cc2)cc2c(NCc3c(C)cc(C)[nH]c3=O)nccc12)C1CCOCC1 [Compound Z-32] |
| 0.145 µM | CCN(c1cc(-c2ccc(CN3CCOCC3)cc2)cc2c(NCc3c(C)cc(C)[nH]c3=O)nccc12)C1CCC(NC(C)=O)CC1 (stereo not drawn) [Compound Z-33] |
| 0.138 µM | CCN(c1cc(-c2cnn(C)c2)cc2c(NCc3c(C)cc(C)[nH]c3=O)nccc12)[C@H]1CC[C@H](N(C)C)CC1 [Compound Z-38] |
| 0.038 µM | CCN(c1cc(-c2ccc(CN3CCOCC3)cc2)cc2c(NCc3c(C)cc(C)[nH]c3=O)nccc12)C1CCC(N(C)C)CC1 (stereo not drawn) [Compound Z-41] |
| 0.303 µM | CCN(c1cc(-c2ccc(N3CCOCC3)nc2)cc2c(NCc3c(C)cc(C)[nH]c3=O)nccc12)C1CCC(NC(C)=O)CC1 (stereo not drawn) [Compound Z-48] |
| 0.026 µM | CCN(c1cc(-c2ccc(N3CCN(C)CC3)nc2)cc2c(NCc3c(C)cc(C)[nH]c3=O)nccc12)C1CCN(C)CC1 [Compound Z-50] |
| 0.007 µM | CCN(c1cc(-c2ccc(N3CCN(C)CC3)nc2)cc2c(NCc3c(C)cc(C)[nH]c3=O)nccc12)C1CCNCC1 [Compound Z-56] |
| 0.086 µM | CCN(c1cc(-c2ccc(N3CCN(C)CC3)nc2)cc2c(NCc3c(C)cc(C)[nH]c3=O)nccc12)C1CCN(C(C)=O)CC1 [Compound Z-57] |
| 0.277 µM | CCN(c1cc(-c2ccc(N3CCOCC3)nc2)cc2c(NCc3c(C)cc(C)[nH]c3=O)nccc12)C1CCN(C(C)=O)CC1 [Compound Z-59] |
| 0.321 µM | CCN(c1cc(-c2ccc(CN3CCOCC3)cc2)cc2c(NCc3c(C)cc(C)[nH]c3=O)nccc12)C1CCN(C(C)=O)CC1 [Compound Z-60] |
| 0.012 µM | CCN(c1cc(C2=CCN(C)CC2)cc2c(NCc3c(C)cc(C)[nH]c3=O)nccc12)C1CCC(N(C)C)CC1 (stereo not drawn) [Compound Z-61] |
| 0.08 µM | CCN(c1cc(-c2cnc(N3CCOCC3)nc2)cc2c(NCc3c(C)cc(C)[nH]c3=O)nccc12)C1CCN(C(C)C)CC1 [Compound Z-62] |
| 0.07 µM | CCN(c1cc(-c2cnc(N3CCN(C)CC3)nc2)cc2c(NCc3c(C)cc(C)[nH]c3=O)nccc12)C1CCN(C(C)C)CC1 [Compound Z-67] |
| 0.15 µM | CCN(c1cc(-c2cccnc2)cc2c(NCc3c(C)cc(C)[nH]c3=O)nccc12)C1CCN(C(C)C)CC1 [Compound Z-68] |
| 0.1 µM | CCN(c1cc(-c2ccc(CN3CCOCC3)nc2)cc2c(NCc3c(C)cc(C)[nH]c3=O)nccc12)C1CCN(C(C)C)CC1 [Compound Z-69] |
| 0.128 µM | CCN(c1cc(-c2ccccc2)cc2c(NCc3c(C)cc(C)[nH]c3=O)nccc12)C1CCC(N(C)C)CC1 (stereo not drawn) [Compound Z-75] |
| 0.06 µM | CCN(c1cc(-c2ccc(N3CCN(C)CC3)nc2)cc2c(NCc3c(C)cc(C)[nH]c3=O)nccc12)C1CCN(CCF)CC1 [Compound Z-76] |
| 0.177 µM | CCN(c1cc(-c2cncc(C(F)(F)F)c2)cc2c(NCc3c(C)cc(C)[nH]c3=O)nccc12)[C@H]1CC[C@H](N(C)C)CC1 [Compound Z-77] |

| IC50 | SMILES |
| --- | --- |
| 0.198 µM | CCN(c1cc(-c2ccc(Oc3cccnc3)cc2)cc2c(NCc3c(C)cc(C)[nH]c3=O)nccc12)C1CCC(N(C)C)CC1 (stereo not drawn) [Compound Z-78] |
| 0.045 µM | CCN(c1cc(-c2cnn(C3CCN(C)CC3)c2)cc2c(NCc3c(C)cc(C)[nH]c3=O)nccc12)C1CCC(N(C)C)CC1 (stereo not drawn) [Compound Z-79] |
| 0.026 µM | CCN(c1cc(-c2ccc(N3CCN(C)CC3)c(F)c2)cc2c(NCc3c(C)cc(C)[nH]c3=O)nccc12)C1CCC(N(C)C)CC1 (stereo not drawn) [Compound Z-80] |
| 0.053 µM | CCN(c1cc(-c2ccc(N3CCN(C)CC3)nc2)cc2c(NCc3c(C)cc(C)[nH]c3=O)nccc12)C1CCN(CCOC)CC1 [Compound Z-81] |
| 0.244 µM | CCN(c1cc(-c2ccc(Oc3ccncc3)cc2)cc2c(NCc3c(C)cc(C)[nH]c3=O)nccc12)C1CCC(N(C)C)CC1 (stereo not drawn) [Compound Z-83] |
| 0.083 µM | CCN(c1cc(-c2ccc(CN3CCN(C)CC3)nc2)cc2c(NCc3c(C)cc(C)[nH]c3=O)nccc12)C1CCN(C2CC2)CC1 [Compound Z-84] |
| 0.474 µM | CCN(c1cc(-c2ccc(N3CCOCC3)nc2)cc2c(NCc3c(C)cc(C)[nH]c3=O)nccc12)C1CCN(C2CC2)CC1 [Compound Z-87] |
| 0.164 µM | CCN(c1cc(-c2ccc(CN3CCOCC3)cc2)cc2c(NCc3c(C)cc(C)[nH]c3=O)nccc12)C1CCC(O)CC1 (stereo not drawn) [Compound Z-88] |
| 0.182 µM | C=C(C)c1cc(N(CC)C2CCC(N(C)C)CC2)c2ccnc(NCc3c(C)cc(C)[nH]c3=O)c2c1 (stereo not drawn) [Compound Z-109] |
| 0.067 µM | CCN(c1cc(-c2ccc(C(=O)Nc3ccccn3)cc2)cc2c(NCc3c(C)cc(C)[nH]c3=O)nccc12)C1CCC(N(C)C)CC1 (stereo not drawn) [Compound Z-110] |
| 0.348 µM | CCN(c1cc(-c2nccn2C)cc2c(NCc3c(C)cc(C)[nH]c3=O)nccc12)C1CCOCC1 [Compound Z-117] |
| 0.075 µM | CCN(c1cc(-c2ccc(C(=O)N3CCOCC3)nc2)cc2c(NCc3c(C)cc(C)[nH]c3=O)nccc12)C1CCN(C(C)C)CC1 [Compound Z-123] |
| 0.051 µM | CCN(c1cc(-c2ccc(C(=O)N3CCN(C)CC3)nc2)cc2c(NCc3c(C)cc(C)[nH]c3=O)nccc12)C1CCN(C(C)C)CC1 [Compound Z-124] |
| 0.225 µM | CCN(c1cc(-c2ccc(CN(C)C)nc2)cc2c(NCc3c(C)cc(C)[nH]c3=O)nccc12)C1CCC(N(C)C)CC1 (stereo not drawn) [Compound Z-128] |
| 0.117 µM | CCN(c1cc(C(F)(F)F)cc2c(NCc3c(C)cc(C)[nH]c3=O)nccc12)C1CCC(N(C)C)CC1 (stereo not drawn) [Compound Z-134] |
| 0.418 µM | CCN(c1cc(Cl)cc2c(NCc3c(C)cc(C)[nH]c3=O)nccc12)C1CCS(=O)(=O)CC1 [Compound Z-139] |
| 0.152 µM | CCN(c1cc(Cl)cc2c(NCc3c(C)cc(C)[nH]c3=O)nccc12)C1CCN(C(C)=O)CC1 [Compound Z-144] |
| 0.203 µM | CCN(c1cc(Cl)cc2c(NCc3c(C)cc(C)[nH]c3=O)nccc12)C1CCC(N(C)CCOC)CC1 (stereo not drawn) [Compound Z-145] |
| 0.159 µM | CCN(c1cc(Cl)cc2c(NCc3c(C)cc(C)nc3O)nccc12)[C@H]1CC[C@H](N2CC(OC)C2)CC1 [Compound Z-149] |
| 0.05 µM | CCN(c1cc(-c2ccc(N3CCNCC3)nc2)cc2c(NCc3c(C)cc(C)[nH]c3=O)nccc12)C1CCOCC1 [Compound Z-151] |
| 0.096 µM | CCN(c1cc(-c2ccc(CN3CCNCC3)nc2)cc2c(NCc3c(C)cc(C)[nH]c3=O)nccc12)C1CCOCC1 [Compound Z-152] |

| IC50 | SMILES |
| --- | --- |
| 0.054 µM | CCN(c1cc(-c2ccc(CN3CCNCC3)cc2)cc2c(NCc3c(C)cc(C)[nH]c3=O)nccc12)C1CCC(N(C)C)CC1 (stereo not drawn) [Compound Z-153] |
| 0.019 µM | CCN(c1cc(-c2ccc(CN3CCNCC3)nc2)cc2c(NCc3c(C)cc(C)[nH]c3=O)nccc12)C1CCC(N(C)C)CC1 (stereo not drawn) [Compound Z-154] |
| 0.159 µM | CCN(c1cc(-c2cn[nH]c2)cc2c(NCc3c(C)cc(C)[nH]c3=O)nccc12)C1CCC(N(C)C)CC1 (stereo not drawn) [Compound Z-155] |
| 0.037 µM | CCN(c1cc(-c2ccc(N3CCNCC3)nc2)cc2c(NCc3c(C)cc(C)[nH]c3=O)nccc12)C1CCC(NC(C)=O)CC1 (stereo not drawn) [Compound Z-156] |
| 0.016 µM | CCN(c1cc(-c2ccc(N3CCNCC3)nc2)cc2c(NCc3c(C)cc(C)[nH]c3=O)nccc12)C1CCC(N(C)C)CC1 (stereo not drawn) [Compound Z-157] |
| 0.367 µM | CCN(c1cc(-c2ccc(NC3CCN(C)CC3)cc2)cc2c(NCc3c(C)cc(C)[nH]c3=O)nccc12)C1CCOCC1 [Compound Z-158] |
| 0.021 µM | CCN(c1cc(-c2ccc(N3CCNCC3)nc2)cc2c(NCc3c(C)cc(C)[nH]c3=O)nccc12)C1CCC(O)CC1 (stereo not drawn) [Compound Z-159] |
| 0.006 µM | CCN(c1cc(-c2cnc(N3CCNCC3)nc2)cc2c(NCc3c(C)cc(C)[nH]c3=O)nccc12)[C@H]1CC[C@H](N(C)C)CC1 [Compound Z-160] |
| 0.331 µM | CCN(c1cc(C(=O)NC)cc2c(NCc3c(C)cc(C)[nH]c3=O)nccc12)C1CCOCC1 [Compound Z-161] |
| 0.253 µM | CCN(c1cc(C(=O)Nc2cccnc2)cc2c(NCc3c(C)cc(C)[nH]c3=O)nccc12)C1CCOCC1 [Compound Z-162] |
| 0.033 µM | CCN(c1cc(C(=O)NC2CCN(C)CC2)cc2c(NCc3c(C)cc(C)[nH]c3=O)nccc12)C1CCOCC1 [Compound Z-163] |
| 0.371 µM | CCN(c1cc(C(=O)Nc2ccccn2)cc2c(NCc3c(C)cc(C)[nH]c3=O)nccc12)C1CCOCC1 [Compound Z-164] |
| 0.015 µM | CCN(c1cc(C(=O)NC)cc2c(NCc3c(C)cc(C)[nH]c3=O)nccc12)[C@H]1CC[C@H](N(C)C)CC1 [Compound Z-166] |
| 0.453 µM | CCN(c1cc(C(=O)N2CCOCC2)cc2c(NCc3c(C)cc(C)[nH]c3=O)nccc12)C1CCOCC1 [Compound Z-167] |
| 0.451 µM | CCN(c1cc(C(=O)N(C)C2CCN(C)CC2)cc2c(NCc3c(C)cc(C)[nH]c3=O)nccc12)C1CCOCC1 [Compound Z-169] |
| 0.374 µM | CCN(c1cc(C(=O)N(C)C)cc2c(NCc3c(C)cc(C)[nH]c3=O)nccc12)[C@H]1CC[C@H](N(C)C)CC1 [Compound Z-170] |
| 0.081 µM | CCN(c1cc(C(=O)NC2CCN(C)CC2)cc2c(NCc3c(C)cc(C)[nH]c3=O)nccc12)C1CCC(N(C)C)CC1 (stereo not drawn) [Compound Z-172] |
| 0.182 µM | CCN(c1cc(Cl)cc2c(NCc3c(C)cc(C)[nH]c3=O)nccc12)C1CCN(C(=O)CC#N)CC1 [Compound Z-175] |
| 0.139 µM | CCN(c1cc(Cl)cc2c(NCc3c(C)cc(C)[nH]c3=O)nccc12)C1CCN(C(=O)CO)CC1 [Compound Z-176] |
| 0.348 µM | CCN(c1cc(C#CCN2CCOCC2)cc2c(NCc3c(C)cc(C)[nH]c3=O)nccc12)C1CCOCC1 [Compound Z-178] |
| 0.226 µM | CCN(c1cc(C#CCN2CCOCC2)cc2c(NCc3c(C)cc(C)[nH]c3=O)nccc12)C1CCN(C(C)=O)CC1 [Compound Z-181] |
